Target: hNav1.7 (Homo sapiens, UniProt Q15858)
Experiment: cell-based
Format: cell-based
[1] = ratio of PX tonic IC50 values, Table 11

Sequence of hNav1.7 (Q15858 whole entry): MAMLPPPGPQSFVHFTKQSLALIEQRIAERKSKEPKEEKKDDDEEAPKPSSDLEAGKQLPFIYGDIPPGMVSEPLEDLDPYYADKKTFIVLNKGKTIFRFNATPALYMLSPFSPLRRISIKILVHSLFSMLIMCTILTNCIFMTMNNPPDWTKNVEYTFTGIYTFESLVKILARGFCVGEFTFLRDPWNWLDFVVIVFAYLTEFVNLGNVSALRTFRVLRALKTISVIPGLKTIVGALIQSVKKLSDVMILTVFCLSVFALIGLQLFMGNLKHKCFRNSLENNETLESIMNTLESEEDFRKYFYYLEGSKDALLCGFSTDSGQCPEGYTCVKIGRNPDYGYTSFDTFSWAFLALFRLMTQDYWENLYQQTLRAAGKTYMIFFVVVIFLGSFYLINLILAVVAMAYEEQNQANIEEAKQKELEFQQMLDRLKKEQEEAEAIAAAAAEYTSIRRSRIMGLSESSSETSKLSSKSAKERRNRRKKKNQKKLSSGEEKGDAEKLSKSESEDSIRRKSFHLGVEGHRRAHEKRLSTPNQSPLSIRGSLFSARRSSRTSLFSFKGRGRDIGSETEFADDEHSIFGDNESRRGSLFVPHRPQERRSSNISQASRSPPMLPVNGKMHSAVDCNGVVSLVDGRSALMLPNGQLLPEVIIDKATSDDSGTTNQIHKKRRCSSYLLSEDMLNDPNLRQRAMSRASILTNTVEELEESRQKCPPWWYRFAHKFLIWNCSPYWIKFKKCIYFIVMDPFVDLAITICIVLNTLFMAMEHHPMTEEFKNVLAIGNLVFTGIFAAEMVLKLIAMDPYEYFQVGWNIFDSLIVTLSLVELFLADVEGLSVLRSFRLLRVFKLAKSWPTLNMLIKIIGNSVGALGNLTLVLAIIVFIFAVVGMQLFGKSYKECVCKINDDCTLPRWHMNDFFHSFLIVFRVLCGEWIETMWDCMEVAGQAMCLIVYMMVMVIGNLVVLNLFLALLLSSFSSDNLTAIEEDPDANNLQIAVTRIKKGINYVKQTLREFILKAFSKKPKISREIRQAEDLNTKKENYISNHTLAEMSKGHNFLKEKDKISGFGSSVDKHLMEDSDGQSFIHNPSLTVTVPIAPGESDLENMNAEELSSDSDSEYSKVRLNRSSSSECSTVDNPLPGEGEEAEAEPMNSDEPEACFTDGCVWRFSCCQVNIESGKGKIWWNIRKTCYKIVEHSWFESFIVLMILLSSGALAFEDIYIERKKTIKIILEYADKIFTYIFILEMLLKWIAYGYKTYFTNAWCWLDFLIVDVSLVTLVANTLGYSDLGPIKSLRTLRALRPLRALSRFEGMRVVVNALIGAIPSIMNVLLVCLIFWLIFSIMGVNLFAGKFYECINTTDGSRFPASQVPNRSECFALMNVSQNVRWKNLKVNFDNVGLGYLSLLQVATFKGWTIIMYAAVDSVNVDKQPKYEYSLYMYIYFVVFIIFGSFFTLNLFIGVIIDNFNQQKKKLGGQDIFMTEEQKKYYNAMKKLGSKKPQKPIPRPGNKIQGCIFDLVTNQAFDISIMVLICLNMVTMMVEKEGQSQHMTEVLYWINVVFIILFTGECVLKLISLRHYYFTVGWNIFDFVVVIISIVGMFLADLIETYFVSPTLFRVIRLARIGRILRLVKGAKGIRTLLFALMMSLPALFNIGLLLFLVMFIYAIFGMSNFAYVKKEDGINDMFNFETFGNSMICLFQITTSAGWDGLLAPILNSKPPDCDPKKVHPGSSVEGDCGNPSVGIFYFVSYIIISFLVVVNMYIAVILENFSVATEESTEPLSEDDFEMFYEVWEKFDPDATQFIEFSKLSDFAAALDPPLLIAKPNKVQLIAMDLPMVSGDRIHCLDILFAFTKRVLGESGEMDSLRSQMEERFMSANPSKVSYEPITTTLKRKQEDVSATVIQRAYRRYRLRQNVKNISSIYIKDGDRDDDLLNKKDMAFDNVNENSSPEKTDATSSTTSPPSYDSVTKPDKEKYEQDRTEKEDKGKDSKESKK

Structure (SMILES) | Wash out (PatchXpress Nav1.7, whether block washes out (Yes/No)) | Nav1.4/Nav1.7 [1] | Nav1.5/Nav1.7 [1]
CCCC[C@@H]1NC(=O)[C@H](Cc2c[nH]c3ccccc23)NC(=O)[C@H](CCCCN)NC(=O)[C@H](CCC(N)=O)NC(=O)[C@@H](NC(=O)[C@H](Cc2ccc(O)cc2)NC(=O)[C@@H](N)Cc2cn(CCOCCOCCOCCOCCOCCOCCOCCOCCOCCOCCOCCOCCOCCOCCOCCOCCOCCOCCOCCOCCOCCOCCOCCNC(=O)c3cc(CN)cc(C(=O)NCCOCCOCCOCCOCCOCCOCCOCCOCCOCCOCCOCCOCCOCCOCCOCCOCCOCCOCCOCCOCCOCCOCCOCCn4cc(C[C@H](N)C(=O)N[C@@H](Cc5ccc(O)cc5)C(=O)N[C@H]5CSSC[C@@H]6NC(=O)[C@@H]7CSSC[C@@H](C(=O)N[C@@H](CCCNC(=N)N)C(=O)N[C@@H](CCCCN)C(=O)N[C@@H](CCC(=O)O)C(=O)N[C@H](C(N)=O)[C@@H](C)CC)NC(=O)[C@H](Cc8c[nH]c9ccccc89)NC(=O)[C@H](CC(C)C)NC(=O)[C@H](CCCCN)NC(=O)[C@H](CSSC[C@H](NC(=O)[C@H]([C@@H](C)O)NC(=O)[C@H](Cc8c[nH]c9ccccc89)NC(=O)[C@H](CCCC)NC(=O)[C@H](Cc8c[nH]c9ccccc89)NC(=O)[C@H](CCCCN)NC(=O)[C@H](CCC(N)=O)NC5=O)C(=O)N[C@@H](CC(=O)O)C(=O)N[C@@H](CO)C(=O)N[C@@H](CCCCN)C(=O)N[C@@H](CCCNC(=N)N)C(=O)N[C@@H](C)C(=O)N7)NC(=O)[C@H](CCCNC(=N)N)NC(=O)[C@H](CC(C)C)NC(=O)CNC(=O)[C@H](CCC(=O)O)NC6=O)nn4)c3)nn2)CSSC[C@@H]2NC(=O)[C@@H]3CSSC[C@@H](C(=O)N[C@@H](CCCNC(=N)N)C(=O)N[C@@H](CCCCN)C(=O)N[C@@H](CCC(=O)O)C(=O)N[C@H](C(N)=O)[C@@H](C)CC)NC(=O)[C@H](Cc4c[nH]c5ccccc45)NC(=O)[C@H](CC(C)C)NC(=O)[C@H](CCCCN)NC(=O)[C@H](CSSC[C@H](NC(=O)[C@H]([C@@H](C)O)NC(=O)[C@H](Cc4c[nH]c5ccccc45)NC1=O)C(=O)N[C@@H](CC(=O)O)C(=O)N[C@@H](CO)C(=O)N[C@@H](CCCCN)C(=O)N[C@@H](CCCNC(=N)N)C(=O)N[C@@H](C)C(=O)N3)NC(=O)[C@H](CCCNC(=N)N)NC(=O)[C@H](CC(C)C)NC(=O)CNC(=O)[C@H](CCC(=O)O)NC2=O [Homodimeric Peptide No. 7] | No | – | –
CCCC[C@@H]1NC(=O)[C@H](Cc2c[nH]c3ccccc23)NC(=O)[C@H](CCCCN)NC(=O)[C@H](CCC(N)=O)NC(=O)[C@@H](NC(=O)[C@H](Cc2ccc(O)cc2)NC(=O)[C@@H](N)CCC(C)C)CSSC[C@@H]2NC(=O)[C@@H]3CSSC[C@@H](C(=O)N[C@@H](CCCNC(=N)N)C(=O)N[C@@H](CCCCN)C(=O)N[C@H](C(=O)N[C@H](C(N)=O)[C@@H](C)CC)[C@@H](C)CC)NC(=O)[C@H](Cc4c[nH]c5ccccc45)NC(=O)[C@H](CC(C)C)NC(=O)[C@H](CCCCN)NC(=O)[C@H](CSSC[C@H](NC(=O)[C@H]([C@@H](C)O)NC(=O)[C@H](Cc4c[nH]c5ccccc45)NC1=O)C(=O)N[C@@H](CC(=O)O)C(=O)N[C@@H](CO)C(=O)N[C@@H](CCCCN)C(=O)N[C@@H](CCCNC(=N)N)C(=O)N[C@@H](C)C(=O)N3)NC(=O)[C@H](CCCNC(=N)N)NC(=O)[C@H](CC(C)C)NC(=O)CNC(=O)[C@H](CCC(=O)O)NC2=O [compound 377] | – | 13 | 615
CCCC[C@@H]1NC(=O)[C@H](Cc2c[nH]c3ccccc23)NC(=O)[C@H](CCCCN)NC(=O)[C@H](CCC(N)=O)NC(=O)[C@@H](NC(=O)[C@H](Cc2ccccc2)NC(=O)[C@@H](N)CC#N)CSSC[C@@H]2NC(=O)[C@@H]3CSSC[C@@H](C(=O)N[C@@H](CCCNC(=N)N)C(=O)N[C@@H](CCCCN)C(=O)N[C@@H](CCC(=O)O)C(=O)N[C@H](C(N)=O)[C@@H](C)CC)NC(=O)[C@H](Cc4c[nH]c5ccccc45)NC(=O)[C@H](CC(C)C)NC(=O)[C@H](CCCCN)NC(=O)[C@H](CSSC[C@H](NC(=O)[C@H]([C@@H](C)O)NC(=O)[C@H](Cc4c[nH]c5ccccc45)NC1=O)C(=O)N[C@@H](CC(=O)O)C(=O)N[C@@H](CO)C(=O)N[C@@H](CCCCN)C(=O)N[C@@H](CCCNC(=N)N)C(=O)N[C@@H](C)C(=O)N3)NC(=O)[C@H](CCCNC(=N)N)NC(=O)[C@H](CC(C)C)NC(=O)CNC(=O)[C@H](CCCCNC(=O)CCOCCOCCOCCOCCOCCOCCOCCOCCOCCOCCOCCOCCN)NC2=O [compound 551] | – | 13 | –

— patent US10344060B2 (priority 2013, dated 2019)
